Laboratory results published in PubChem BioAssay (NCI).
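Five compound concentrations were applied to cells in 96-well plates for 48 hours; endpoints were derived by simple linear interpolation of the resulting dose-response curve. Here, GI50 denotes the concentration required for 50% inhibition of growth. TGI denotes the concentration required for complete inhibition of growth.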 Where a SMILES comes first, the peptide text is derived from it. [ ]: non-standard residue; d: D form. pGlu = O=C1CC[CH](C(=O)O)N1

Legend:
Assay in all cases: NCI tumour cell line growth inhibition, 48 h
SR leukemia = system: SR leukemia
SK-MEL-28 melanoma = system: SK-MEL-28 melanoma
MDA-MB-435 = system: MDA-MB-435
SNB-19 CNS = system: SNB-19 CNS
A498 renal = system: A498 renal
NCI-H522 lung = system: NCI-H522 lung
IGROV1 ovarian = system: IGROV1 ovarian
HL-60(TB) leukemia = system: HL-60(TB) leukemia
LOX IMVI melanoma = system: LOX IMVI melanoma
DU-145 prostate = system: DU-145 prostate

N#Cc1ccc(OCc2nc(N)nc(N)c2-c2ccc(Cl)c(Cl)c2)cc1
GI50 (SR leukemia): 4.03 µM | TGI (SR leukemia): 66.2 µM | GI50 (SK-MEL-28 melanoma): 4.39 µM | TGI (SK-MEL-28 melanoma): 40.2 µM | GI50 (MDA-MB-435): 0.629 µM | TGI (MDA-MB-435): > 100 µM | GI50 (SNB-19 CNS): 2.79 µM | TGI (SNB-19 CNS): > 100 µM | GI50 (A498 renal): 1.43 µM | TGI (A498 renal): 10.8 µM | GI50 (NCI-H522 lung): 2.97 µM | TGI (NCI-H522 lung): 19.9 µM | GI50 (IGROV1 ovarian): 1.73 µM | TGI (IGROV1 ovarian): > 100 µM | GI50 (HL-60(TB) leukemia): 0.554 µM | TGI (HL-60(TB) leukemia): 24.4 µM | GI50 (LOX IMVI melanoma): 0.424 µM | TGI (LOX IMVI melanoma): > 100 µM | GI50 (DU-145 prostate): 3.6 µM | TGI (DU-145 prostate): > 100 µM

C=C(CN1C(=O)CN(C)C1=O)c1ccc(C(=O)Nc2ccccc2N)cc1
GI50 (SR leukemia): 1.41 µM | TGI (SR leukemia): 10.7 µM | GI50 (SK-MEL-28 melanoma): 15.9 µM | TGI (SK-MEL-28 melanoma): 54.8 µM | GI50 (MDA-MB-435): 11.3 µM | TGI (MDA-MB-435): 54.1 µM | GI50 (SNB-19 CNS): 38.5 µM | TGI (SNB-19 CNS): > 100 µM | GI50 (A498 renal): 4.3 µM | TGI (A498 renal): 31.2 µM | GI50 (NCI-H522 lung): 4.04 µM | TGI (NCI-H522 lung): 36.2 µM | GI50 (IGROV1 ovarian): 12.3 µM | TGI (IGROV1 ovarian): > 100 µM | GI50 (HL-60(TB) leukemia): 4.93 µM | TGI (HL-60(TB) leukemia): 61.1 µM | GI50 (LOX IMVI melanoma): 18.2 µM | TGI (LOX IMVI melanoma): 69.9 µM | GI50 (DU-145 prostate): 25.9 µM | TGI (DU-145 prostate): > 100 µM

CCNC(=O)C1CCCN1C(=O)C(CCCN=C(N)N)NC(=O)C(CC(C)C)NC(=O)C(CC(C)C)NC(=O)C(Cc1ccc(O)cc1)NC(=O)C(CO)NC(=O)C(Cc1c[nH]c2ccccc12)NC(=O)C(Cc1cnc[nH]1)NC(=O)C1CCC(=O)N1 (stereo unspecified) ([pGlu]HWSYLLRP-NHEt; configuration not given here)
GI50 (SR leukemia): > 100 µM | TGI (SR leukemia): > 100 µM | GI50 (SK-MEL-28 melanoma): > 100 µM | TGI (SK-MEL-28 melanoma): > 100 µM | GI50 (MDA-MB-435): > 100 µM | TGI (MDA-MB-435): > 100 µM | GI50 (SNB-19 CNS): > 100 µM | TGI (SNB-19 CNS): > 100 µM | GI50 (A498 renal): > 100 µM | TGI (A498 renal): > 100 µM | GI50 (NCI-H522 lung): > 100 µM | TGI (NCI-H522 lung): > 100 µM | GI50 (IGROV1 ovarian): > 100 µM | TGI (IGROV1 ovarian): > 100 µM | GI50 (HL-60(TB) leukemia): > 100 µM | TGI (HL-60(TB) leukemia): > 100 µM | GI50 (LOX IMVI melanoma): > 100 µM | TGI (LOX IMVI melanoma): > 100 µM | GI50 (DU-145 prostate): > 100 µM | TGI (DU-145 prostate): > 100 µM

COc1ccc(-c2cc3c(c4cc(OC)ccc24)C(=O)OC3=O)cc1
TGI (SR leukemia): > 100 µM | TGI (SK-MEL-28 melanoma): > 100 µM | TGI (MDA-MB-435): > 100 µM | TGI (SNB-19 CNS): > 100 µM | TGI (NCI-H522 lung): > 100 µM | TGI (IGROV1 ovarian): > 100 µM | TGI (HL-60(TB) leukemia): > 100 µM | TGI (LOX IMVI melanoma): > 100 µM | TGI (DU-145 prostate): > 100 µM

CCN(Cc1ccc(Cl)cc1)c1ccc(CO)c(Cl)c1
GI50 (SR leukemia): 17.7 µM | TGI (SR leukemia): 51.5 µM | GI50 (SK-MEL-28 melanoma): 11.2 µM | TGI (SK-MEL-28 melanoma): 24.2 µM | GI50 (MDA-MB-435): 11 µM | TGI (MDA-MB-435): 24.5 µM | GI50 (SNB-19 CNS): 13.1 µM | TGI (SNB-19 CNS): 28.9 µM | GI50 (A498 renal): 0.0311 µM | TGI (A498 renal): 0.153 µM | GI50 (NCI-H522 lung): 7.55 µM | TGI (NCI-H522 lung): 22.6 µM | GI50 (IGROV1 ovarian): 0.0867 µM | TGI (IGROV1 ovarian): 0.641 µM | GI50 (HL-60(TB) leukemia): 3.17 µM | TGI (HL-60(TB) leukemia): 20.8 µM | GI50 (LOX IMVI melanoma): 3.36 µM | TGI (LOX IMVI melanoma): 15.3 µM | GI50 (DU-145 prostate): 7.89 µM | TGI (DU-145 prostate): 22.7 µM

CC(C)Cn1cnc2c(SCc3ccc(Cl)cc3Cl)nc(N)nc21
TGI (SR leukemia): 25.8 µM | TGI (SK-MEL-28 melanoma): > 100 µM | TGI (MDA-MB-435): > 100 µM | TGI (SNB-19 CNS): > 100 µM | TGI (A498 renal): 49.5 µM | TGI (NCI-H522 lung): 37 µM | TGI (IGROV1 ovarian): > 100 µM | TGI (LOX IMVI melanoma): 38.3 µM | TGI (DU-145 prostate): > 100 µM

CCN(Cc1cc(Nc2nc(C)cn3c(-c4cn[nH]c4)cnc23)sn1)C(C)(C)CO
GI50 (SR leukemia): < 0.01 µM | TGI (SR leukemia): 1.64 µM | GI50 (SK-MEL-28 melanoma): 1.41 µM | TGI (SK-MEL-28 melanoma): 14.7 µM | GI50 (MDA-MB-435): 0.0826 µM | TGI (MDA-MB-435): 1.31 µM | GI50 (SNB-19 CNS): 0.11 µM | TGI (SNB-19 CNS): 9.57 µM | GI50 (A498 renal): < 0.01 µM | TGI (A498 renal): 0.0163 µM | GI50 (NCI-H522 lung): 0.0227 µM | TGI (NCI-H522 lung): 2.26 µM | GI50 (IGROV1 ovarian): 0.0257 µM | TGI (IGROV1 ovarian): 12.9 µM | GI50 (LOX IMVI melanoma): < 0.0125 µM | TGI (LOX IMVI melanoma): 0.199 µM | GI50 (DU-145 prostate): 0.0822 µM | TGI (DU-145 prostate): 6.58 µM
